Data: PubChem BioAssay (NCI)
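Step 1: Grow cells in 96-well plates. Step 2: Expose to compound for 48 hours at 5 concentrations. Step 3: Interpolate endpoints linearly; if unreached, use highest concentration. Abbreviation: GI50, concentration required for 50% inhibition of growth. TGI: total growth inhibition.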

system: OVCAR-3 ovarian; assay: growth of human tumour cells (NCI), 48 h

| SMILES | TGI [µM] | GI50 [µM] |
| --- | --- | --- |
| CCC(C)c1c(Cl)nc(Cl)nc1Cl (configuration not stated) | 14.8 | – |
| CC(C)c1nc(CN(C)C(=O)N[C@H](C(=O)N[C@@H](Cc2ccccc2)C[C@H](O)[C@H](Cc2ccccc2)NC(=O)OCc2cncs2)C(C)C)cs1 | > 56.5 | 21.5 |
| Oc1ccc(CN2CCC(N3CCCCC3)CC2)c2cccnc12 | > 100 | 27.5 |
| N#Cc1ccc(O)c(C2=NCC(c3cccc(Oc4ccccc4)c3)O2)c1 (configuration not stated) | 10.8 | 0.432 |
| CC1(C)OC2[C@@H](CNC(=O)NC(=O)NC(=O)CI)O[C@@H](n3cnc4c(NC(=O)Nc5ccccc5)ncnc43)[C@H]2O1 (some centres not stated) | 12.6 | 5.72 |
| COc1cc(C2=C(c3ccccc3)COC2=O)cc(OC)c1OC | 2.1 | 0.309 |
| COc1cc(C2NC(=O)c3ccccc3N2)ccc1OCCCCCOc1c(OC)cc(C2=NOC(c3cc(OC)c(OC)c(OC)c3)C2)cc1OC (configuration not stated) | 44 | 12.6 |
| O=C1Nc2c(C(F)(F)F)cccc2[C@]1(c1ccc(O)cc1)c1ccc(OC(F)(F)F)cc1 | 16.3 | 3.95 |
| CS(=O)(=O)c1ccc([C@H]2O[C@@H](CO)C[C@]2(O)c2ccc(S(C)(=O)=O)cc2)cc1 | > 100 | > 100 |
| CC(=O)OC[C@]1(C)C=C2C(=O)[C@](C)(O)C3(CC3)C(C)=C2[C@H]1O | 0.417 | 0.0424 |
| C[C@]12CC[C@H]3[C@@H](CC=C4C[C@@H](O)CC[C@@]43C)[C@@H]1CC[C@@H]2N(CCO)CCO | > 100 | – |
| CC(C)(C)OC(=O)N1CCc2c(sc3ncnc(N/N=C/c4cccc5ccccc45)c23)C1 | 77.7 | 3.95 |
| CC[C@@H]1CN(C)[C@H]2Cc3c([nH]c4ccccc34)C(=O)C[C@H]1C2C(=O)OC (some centres not stated) | > 100 | – |
| CCN(CC)c1ccc(/C=C/c2ccc3cc(C)ccc3[n+]2CC)cc1 | 0.995 | 0.075 |
| Cc1ccc2c(c1)[n+]([O-])c(N)n[n+]2[O-] | > 100 | – |
| COc1ccc(/C=C/c2nccc3ccccc23)cc1OC | > 10 | – |

system: SNB-75 CNS; assay: growth of human tumour cells (NCI), 48 h

| SMILES | TGI [µM] | GI50 [µM] |
| --- | --- | --- |
| CCC(C)c1c(Cl)nc(Cl)nc1Cl (configuration not stated) | 26.8 | – |
| CC(C)c1nc(CN(C)C(=O)N[C@H](C(=O)N[C@@H](Cc2ccccc2)C[C@H](O)[C@H](Cc2ccccc2)NC(=O)OCc2cncs2)C(C)C)cs1 | 54.3 | 20.4 |
| Oc1ccc(CN2CCC(N3CCCCC3)CC2)c2cccnc12 | > 100 | 2.85 |
| N#Cc1ccc(O)c(C2=NCC(c3cccc(Oc4ccccc4)c3)O2)c1 (configuration not stated) | > 100 | 1.08 |
| CC1(C)OC2[C@@H](CNC(=O)NC(=O)NC(=O)CI)O[C@@H](n3cnc4c(NC(=O)Nc5ccccc5)ncnc43)[C@H]2O1 (some centres not stated) | 13.3 | 6.62 |
| COc1cc(C2=C(c3ccccc3)COC2=O)cc(OC)c1OC | > 100 | > 100 |
| COc1cc(C2NC(=O)c3ccccc3N2)ccc1OCCCCCOc1c(OC)cc(C2=NOC(c3cc(OC)c(OC)c(OC)c3)C2)cc1OC (configuration not stated) | > 100 | 19.6 |
| O=C1Nc2c(C(F)(F)F)cccc2[C@]1(c1ccc(O)cc1)c1ccc(OC(F)(F)F)cc1 | 19.5 | 5.78 |
| CS(=O)(=O)c1ccc([C@H]2O[C@@H](CO)C[C@]2(O)c2ccc(S(C)(=O)=O)cc2)cc1 | > 100 | > 100 |
| CC(=O)OC[C@]1(C)C=C2C(=O)[C@](C)(O)C3(CC3)C(C)=C2[C@H]1O | 0.35 | 0.152 |
| C[C@]12CC[C@H]3[C@@H](CC=C4C[C@@H](O)CC[C@@]43C)[C@@H]1CC[C@@H]2N(CCO)CCO | > 100 | – |
| CC(C)(C)OC(=O)N1CCc2c(sc3ncnc(N/N=C/c4cccc5ccccc45)c23)C1 | 8.2 | 1.67 |
| CC[C@@H]1CN(C)[C@H]2Cc3c([nH]c4ccccc34)C(=O)C[C@H]1C2C(=O)OC (some centres not stated) | > 100 | – |
| CCN(CC)c1ccc(/C=C/c2ccc3cc(C)ccc3[n+]2CC)cc1 | 6.24 | 0.161 |
| Cc1ccc2c(c1)[n+]([O-])c(N)n[n+]2[O-] | > 100 | – |
| COc1ccc(/C=C/c2nccc3ccccc23)cc1OC | > 10 | – |

system: SN12C renal; assay: growth of human tumour cells (NCI), 48 h

| SMILES | TGI [µM] | GI50 [µM] |
| --- | --- | --- |
| CCC(C)c1c(Cl)nc(Cl)nc1Cl (configuration not stated) | 85.4 | – |
| CC(C)c1nc(CN(C)C(=O)N[C@H](C(=O)N[C@@H](Cc2ccccc2)C[C@H](O)[C@H](Cc2ccccc2)NC(=O)OCc2cncs2)C(C)C)cs1 | 50.4 | 20.2 |
| Oc1ccc(CN2CCC(N3CCCCC3)CC2)c2cccnc12 | > 100 | 8.18 |
| N#Cc1ccc(O)c(C2=NCC(c3cccc(Oc4ccccc4)c3)O2)c1 (configuration not stated) | 89.5 | 1.21 |
| CC1(C)OC2[C@@H](CNC(=O)NC(=O)NC(=O)CI)O[C@@H](n3cnc4c(NC(=O)Nc5ccccc5)ncnc43)[C@H]2O1 (some centres not stated) | 28.6 | 10.3 |
| COc1cc(C2=C(c3ccccc3)COC2=O)cc(OC)c1OC | > 100 | 5.96 |
| COc1cc(C2NC(=O)c3ccccc3N2)ccc1OCCCCCOc1c(OC)cc(C2=NOC(c3cc(OC)c(OC)c(OC)c3)C2)cc1OC (configuration not stated) | > 100 | 31.3 |
